Source: publication PMC8469417, “Is It Possible to Create Antimicrobial Peptides Based on the Amyloidogenic Sequence of Ribosomal S1 Protein of P. aeruginosa?” (International Journal of Molecular Sciences, 2021)
Entries after “also recorded” stand apart in the source; their conditions may differ. Counter-ions that a name gives are not always drawn. Each block holds one compound with its values, some of them ahead of it. Ends that are not written are not given here.

What was measured:
[1] = system: human diploid fibroblasts; assay: Cytotoxicity assay, human fibroblasts; format: cell-based; details: up to 8 µM, 24 h; resazurin assay, calcein-AM / propidium iodide staining, triplicate
Experimental: (§1) Cell viability was estimated as described previously by resazurin cell viability assay. Each assay was done in triplicate. All measurements were carried out on the control samples that were not treated with cytotoxic substances. We used human diploid fibroblasts and human breast duct carcinoma BT474 cells obtained from the American Type Cell Culture Collection (Manassas, Virginia, VA, USA). BT474 cells were cultured in DMEM medium (Sigma-Aldrich, St. Louis, MO, USA) supplemented with 10% fetal bovine serum (Gibco, Waltham, MA, USA), 40 μg/mL gentamicin sulfate (Sigma-Aldrich, St. Louis, MO, USA), at 37° C, under conditions of 5% content CO2 in the air. The analysis of living and dead cells was carried out using BD Accuri C6 flow cytometer (BD Bioscience, San Jose, CA, USA).

[2] = system: P. aeruginosa strain ATCC 28753; format: cell-based, Pseudomonas aeruginosa; details: 10 µL drops on LB 0.75% agar, 2% DMSO, 12 h, 37 °C
Experimental: (§2) The R23R, R23L, R23R*, R23L* peptides and an antibiotic (gentamicin sulfate) were dissolved in 100% DMSO and solutions were prepared to test their activity.
(§3) The P. aeruginosa strain ATCC 28753 was inoculated with a wire loop in 5 mL of LB medium and was incubated at 37 °C. After 12 h, plastic Petri dishes were poured with LB medium (about 5 mL) with 0.75% agar. Before pouring, 50 μL of an overnight culture of the test bacteria was added to each dish. The R23R, R23L, R23R*, and R23L* peptides were finally dissolved in 2% (volume/volume) DMSO and was tested with different concentrations with gentamicin sulfate as control of antimicrobial effect. The medium was dried and 10 μL of the prepared peptides were applied to it in accordance with the labeling. Then the dishes were placed in a thermostat and incubated for 12 h at a temperature of 37 °C. Antimicrobial activity was recorded by the presence of transparent zones of no growth around drops with peptide.

[3] = system: human breast duct carcinoma BT474 cells; assay: Cytotoxicity assay, BT474 cells; format: cell-based; details: up to 8 µM, 24 h; resazurin assay, calcein-AM / propidium iodide staining, triplicate
Experimental: as §1

[4] = system: P. aeruginosa strain PA103; assay: Broth microdilution, strain PA103; format: cell-based, Pseudomonas aeruginosa; details: LB medium, 2% DMSO, 24 h, 37 °C, 600 nm
Experimental: The R23R, R23L, R23R*, R23L* peptides and an antibiotic (gentamicin sulfate) were dissolved in 100% DMSO and solutions were prepared with a final DMSO concentration of 2% (volume/volume) to test their activity.
Stationary culture of P. aeruginosa strain PA103 was diluted 100 times in fresh LB medium with peptides R23R and R23L or gentamicin sulfate (positive control) at various concentrations. After 24 h at 37 °C co-incubation bacterial cells with peptides, the optical densities of the cultures were measured at a wavelength of 600 nm in a plate reader iMac (BioRad Laboratories, Hercules, CA, USA). Each test was carryout in three replicates.
In the next experiment to prepare a stationary culture of P. aeruginosa, strain PA103, a colony was inoculated from a Petri dish in 1.5 mL of liquid LB medium and set to grow for 24 h at 37 °C and with stirring at 180 rpm. In the experiment, we used a culture with an initial concentration of ≈10^6–10^7 CFU/mL (10 μL), sterile LB medium (80 μL), peptides R23R* and R23L* diluted in 20% (volume/volume) DMSO or the antibiotic gentamicin sulfate as a positive control (10 μL). […] Optical density was measured in a plate reader iMac (BioRad Laboratories, Hercules, CA, USA) at a wavelength of 600 nm every hour from 0 h to 24 h. Each sample is measured in duplicate.

[5] = system: P. aeruginosa strain PA103; assay: Inhibition zone assay on agar, strain PA103; format: cell-based, Pseudomonas aeruginosa; details: 24 h
Experimental: as §2
The culture of the studied bacteria (P. aeruginosa strain PA103) was diluted 10 times in Luria-Bertani (LB) medium with non-solidified 0.75% agar (w/w) on sterile Petri dishes. […]

[6] = electron microscopy and fluorescence of thioflavin T; cited from earlier work
Source text: In accordance with the strategy presented in Figure 1, we developed hybrid peptides that contained a cell penetrating peptide (CPP) (fragment of Tat-peptide) at the N-termini and an amyloidogenic sequence at the C-termini, which was predicted using bioinformatics tools. The two sites were linked by four glycines. Thus, the construction of the fusion peptide was as follows: “CPP”+”linker GGGG”+ “predicted amyloidogenic-fragment”. The LHITDMAWKR and ITDFGIFIGL sequences were used as amyloidogenic fragments.

[7] = system: P. aeruginosa strain ATCC 9027; assay: Antimicrobial test on agar, strain ATCC 9027; format: cell-based, Pseudomonas aeruginosa
Experimental: as §2, §3
Studies with the P. aeruginosa strain ATCC 9027 were carried out similarly to the P. aeruginosa strain ATCC 28753. The exception was the amount of LB medium. Sterile plastic Petri dishes were filled with LB medium (about 25 mL) with 0.75% agar and 250 µL of an overnight culture of the test bacteria was added to each dish.

Compound: RKKRRQRRRGGGGLHITDMAWKR [R23R]
- cytotoxic effect / cell viability (in words) [1]: remained alive; also recorded: did not have a toxic effect
- MIC [2]: about 300 µM
- cytotoxic effect / cell viability (in words) [3]: remained alive; also recorded: did not have a toxic effect

- MIC ([5]; Pseudomonas aeruginosa, PA103, drops on LB 0.75% agar, 20% DMSO, zones of inhibition, read-out: minimum inhibitory concentration (MIC)): 170 µM
Compound: CNC(C)C1CCC(N)C(OC2C(N)CC(N)C(OC3OCC(C)(O)C(NC)C3O)C2O)O1 (centres unmarked) [gentamicin sulfate]
- Optical density ([4]; 174 µM): zero
- Optical density ([4]; 1740 µM): zero

Compound: ITDFGIFIGL [amyloidogenic fragment from the fifth domain of ribosomal S1 protein of P. aeruginosa]
- amyloid-like properties (in words) [6]: exhibited amyloid-like properties

Compound: RKKRRQRRRGG-Sar [R12-Sar, CPP fragment with GG-Sar, without amyloidogenic part]
- antimicrobial activity on agar (in words) ([7]; drops on LB 0.75% agar, 3.75-3750 µM tested, zones of inhibition): did not exhibit antimicrobial activity
- antibacterial properties on agar ([7]; peptide 3.75 µM): Non-AMP
- antibacterial properties on agar ([7]; peptide 37.5 µM): Non-AMP
- antibacterial properties on agar ([7]; peptide 375 µM): Non-AMP
- antibacterial properties on agar ([7]; peptide 3750 µM): Non-AMP
- antimicrobial activity on agar (in words) ([5]; drops on LB agar, b51 states it for bacteria grown on agar in general): did not exhibit antimicrobial activity
- antibacterial properties on agar ([5]; peptide 6.56 µM): Non-AMP
- antibacterial properties on agar ([5]; peptide 65.6 µM): Non-AMP
- antibacterial properties on agar ([5]; peptide 656 µM): Non-AMP
- antibacterial properties on agar ([5]; peptide 6560 µM): Non-AMP

Compound: RKKRRQRRRGGGGITDFGIFIGL [R23L]
- cytotoxic effect / cell viability (in words) [1]: remained alive; also recorded: did not have a toxic effect
- MIC [2]: about 300 µM
- cytotoxic effect / cell viability (in words) [3]: remained alive; also recorded: did not have a toxic effect
